Test results as given in ChEMBL document CHEMBL1201862, “PubChem BioAssay data set” (2004).
Calls of active or inactive are those of the source.

How the values were obtained:
[1] = blockade of melanocortin 4 receptor signaling – cell-based, plate reader, cherry pick, counter-screen for LGR2 antagonist project, dose response (AID 743444); assay type: functional;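 note: transfected HEK 293 cells stimulated with alpha-MSH peptide; potency of inhibitors of the alpha-MSH evoked signal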
[2] = A549 cell cytotoxicity, dose response, cytotoxicity control, plate reader, cherry-pick, antagonist series (AID 743412); assay type: functional, cell-based
[3] = blockers of bursicon-stimulated LGR2 cAMP reporter – cell-based, HEK293, CRE-luciferase reporter, cherry pick, set 2, dose response (AID 743343); assay type: functional;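 note: transfected cells were stimulated with diluted bursicon conditioned medium after compound addition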
[4] = toxicity toward HepG2 liver cells – cell-based, plate reader, cherry-pick, antagonist series, cytotoxicity control, dose response (AID 743416); assay type: functional
[5] = biological target: T1, Nuclear receptor subfamily 0 group B member 1 (Homo sapiens, UniProt P51843); assay type: functional, cell-based;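 note: HEK293T cells transfected with SF-1 and DAX-1 plus StAR promoter luciferase reporter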
T1 sequence (P51843 whole entry): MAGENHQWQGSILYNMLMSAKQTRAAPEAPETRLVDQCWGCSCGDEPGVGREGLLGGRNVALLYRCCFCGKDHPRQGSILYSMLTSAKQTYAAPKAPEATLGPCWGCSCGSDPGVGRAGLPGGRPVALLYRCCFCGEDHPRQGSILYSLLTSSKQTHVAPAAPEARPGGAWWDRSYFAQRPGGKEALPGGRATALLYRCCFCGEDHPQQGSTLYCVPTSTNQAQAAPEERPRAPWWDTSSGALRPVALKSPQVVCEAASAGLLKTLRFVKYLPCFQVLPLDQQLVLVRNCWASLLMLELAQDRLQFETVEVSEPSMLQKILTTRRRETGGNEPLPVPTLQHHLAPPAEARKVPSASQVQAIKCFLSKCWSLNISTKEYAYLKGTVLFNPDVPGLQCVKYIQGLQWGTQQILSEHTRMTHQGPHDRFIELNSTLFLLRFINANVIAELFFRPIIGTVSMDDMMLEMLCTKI

cells = assay type: functional, cell-based
[6] = general mammalian cell viability loss – inhibitor set, cherry-pick, set 2, cytotoxicity control for miR-122 modulator project, dose response (AID 720697); assay type: functional, cell-based
[7] = biological target: T2, Bifunctional protein GlmU (Mycobacterium tuberculosis, UniProt P9WMN3); experiment: Inhibitors of Mycobacterial Glucosamine-1-phosphate acetyl transferase (GlmU). Secondary screen.; design: species or system Mycobacterium tuberculosis H37Rv
T2 sequence (P9WMN3 whole entry): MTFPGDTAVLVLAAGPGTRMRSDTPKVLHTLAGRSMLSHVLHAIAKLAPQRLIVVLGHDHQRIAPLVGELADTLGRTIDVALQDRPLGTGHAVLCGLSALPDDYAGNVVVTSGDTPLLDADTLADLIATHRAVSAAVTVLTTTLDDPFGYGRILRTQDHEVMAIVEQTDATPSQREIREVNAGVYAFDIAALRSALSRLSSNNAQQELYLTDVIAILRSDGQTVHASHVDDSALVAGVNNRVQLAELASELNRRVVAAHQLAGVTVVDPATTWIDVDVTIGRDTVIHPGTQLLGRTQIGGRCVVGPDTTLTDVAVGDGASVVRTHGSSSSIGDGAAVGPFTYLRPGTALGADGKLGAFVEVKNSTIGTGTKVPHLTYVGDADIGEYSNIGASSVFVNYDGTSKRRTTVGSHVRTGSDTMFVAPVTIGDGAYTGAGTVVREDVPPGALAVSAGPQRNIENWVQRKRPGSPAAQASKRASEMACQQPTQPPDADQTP

[8] = biological target: T3, Polyadenylate-binding protein 1 (Homo sapiens, UniProt P11940); experiment: MLLE binding blockers, Cy5 peptide tracer – biochemical, fluorescence polarization, Cy5-PAM2 peptide, secondary, miRNA deadenylation inhibitor project, dose response (AID 602260); assay type: functional; settings: read-out: IC50_Mean
T3 sequence (P11940 whole entry): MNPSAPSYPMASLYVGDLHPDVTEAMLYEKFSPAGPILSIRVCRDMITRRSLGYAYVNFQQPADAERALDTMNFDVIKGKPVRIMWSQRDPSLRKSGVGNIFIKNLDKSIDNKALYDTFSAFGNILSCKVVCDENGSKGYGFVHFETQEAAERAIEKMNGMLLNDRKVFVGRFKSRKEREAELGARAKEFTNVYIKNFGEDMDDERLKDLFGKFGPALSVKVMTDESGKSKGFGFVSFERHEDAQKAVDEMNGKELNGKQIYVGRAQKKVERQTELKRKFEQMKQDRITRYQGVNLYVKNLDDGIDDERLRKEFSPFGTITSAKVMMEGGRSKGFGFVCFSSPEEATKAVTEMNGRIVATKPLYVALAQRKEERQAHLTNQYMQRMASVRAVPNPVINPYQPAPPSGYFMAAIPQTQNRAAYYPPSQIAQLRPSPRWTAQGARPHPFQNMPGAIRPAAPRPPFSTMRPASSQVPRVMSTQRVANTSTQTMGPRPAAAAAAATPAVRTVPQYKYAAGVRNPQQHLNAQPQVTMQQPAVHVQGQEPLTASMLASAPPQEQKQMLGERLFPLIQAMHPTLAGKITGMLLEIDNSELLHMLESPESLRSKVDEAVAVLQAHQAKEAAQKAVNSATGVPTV

Large T antigen = Large T antigen (Simian virus 40, UniProt P03070); assay type: functional, Betapolyomavirus macacae;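 note: Confirmatory-stage PubChem screen for compounds that inhibit SV40 T antigen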
Large T antigen, sequence (P03070 whole entry): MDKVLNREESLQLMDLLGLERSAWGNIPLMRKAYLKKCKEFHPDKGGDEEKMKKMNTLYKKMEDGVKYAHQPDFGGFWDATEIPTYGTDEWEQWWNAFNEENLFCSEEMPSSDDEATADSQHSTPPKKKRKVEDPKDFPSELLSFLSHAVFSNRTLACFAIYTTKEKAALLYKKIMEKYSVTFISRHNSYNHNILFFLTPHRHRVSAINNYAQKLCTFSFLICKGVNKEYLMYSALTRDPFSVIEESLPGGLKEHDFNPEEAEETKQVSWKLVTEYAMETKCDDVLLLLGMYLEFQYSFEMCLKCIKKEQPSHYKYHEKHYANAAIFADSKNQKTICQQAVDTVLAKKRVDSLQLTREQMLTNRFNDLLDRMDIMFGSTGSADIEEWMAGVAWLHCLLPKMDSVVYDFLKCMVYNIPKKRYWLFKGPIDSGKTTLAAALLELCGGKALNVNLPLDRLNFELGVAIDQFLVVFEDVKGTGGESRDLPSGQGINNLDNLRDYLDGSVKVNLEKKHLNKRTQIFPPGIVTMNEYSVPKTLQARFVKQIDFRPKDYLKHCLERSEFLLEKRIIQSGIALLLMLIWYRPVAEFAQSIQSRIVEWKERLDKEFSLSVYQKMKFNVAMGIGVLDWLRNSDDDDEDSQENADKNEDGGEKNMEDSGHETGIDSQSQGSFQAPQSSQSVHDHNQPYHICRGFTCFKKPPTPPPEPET

Genome polyprotein = Genome polyprotein (dengue virus type 2, UniProt P29990); experiment: flavivirus cap methylation enzyme inhibition – biochemical, confirmation dose response, primary screen (AID 588689); assay type: functional
Genome polyprotein, sequence (P29990 2492-3391 limits assumed): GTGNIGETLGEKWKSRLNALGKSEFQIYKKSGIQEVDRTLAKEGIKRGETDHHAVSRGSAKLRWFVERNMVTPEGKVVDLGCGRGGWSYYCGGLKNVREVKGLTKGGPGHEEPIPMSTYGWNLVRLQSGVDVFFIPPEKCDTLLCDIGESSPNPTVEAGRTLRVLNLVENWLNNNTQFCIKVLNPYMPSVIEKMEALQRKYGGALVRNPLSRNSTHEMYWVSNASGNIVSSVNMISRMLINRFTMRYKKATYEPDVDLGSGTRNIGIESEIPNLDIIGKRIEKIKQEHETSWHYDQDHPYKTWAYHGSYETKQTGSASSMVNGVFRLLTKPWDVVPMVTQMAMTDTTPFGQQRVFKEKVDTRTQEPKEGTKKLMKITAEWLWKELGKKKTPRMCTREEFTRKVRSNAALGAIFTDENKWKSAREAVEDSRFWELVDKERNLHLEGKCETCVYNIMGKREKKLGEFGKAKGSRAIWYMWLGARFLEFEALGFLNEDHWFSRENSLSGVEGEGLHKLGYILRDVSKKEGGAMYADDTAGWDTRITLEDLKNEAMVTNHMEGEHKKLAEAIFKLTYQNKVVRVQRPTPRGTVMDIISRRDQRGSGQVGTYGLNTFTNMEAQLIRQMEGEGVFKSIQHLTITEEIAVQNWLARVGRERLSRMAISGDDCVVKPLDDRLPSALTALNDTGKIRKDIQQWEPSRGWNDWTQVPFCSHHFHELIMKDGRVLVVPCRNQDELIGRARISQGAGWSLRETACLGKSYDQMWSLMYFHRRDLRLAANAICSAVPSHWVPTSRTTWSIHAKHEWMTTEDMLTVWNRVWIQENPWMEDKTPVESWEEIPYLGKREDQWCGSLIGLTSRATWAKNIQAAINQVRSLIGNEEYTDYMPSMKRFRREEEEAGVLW

[9] = biological target: T3, Polyadenylate-binding protein 1; experiment: MLLE domain peptide-binding blockers, IC50 – biochemical, fluorescence polarization, FITC-PAM2 peptide, dose response (AID 602259); assay type: functional; settings: read-out: IC50_Mean
[10] = activation of miR-122 Renilla sensor silencing – cell-based, Huh7 psiCHECK-miR122, Renilla luciferase, cherry-picked, dose response (AID 651956); assay type: functional;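 note: huh7 hepatoma cells stably carrying a psiCHECK-2 miR-122 sensor plasmid; renilla luciferase signal reporting endogenous miR-122 activity after 48 h compound exposure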
[11] = inhibition of ADAM10 peptide cleavage – biochemical, FRET peptide substrate, recombinant human ADAM10, selectivity assay for ADAM17 exosite inhibitor project, dose response (AID 743259);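 note: ADAM10 enzyme cleaving a FRET peptide substrate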
BJ [12] = experiment: BJ-TERT fibroblast viability loss – cell-based, RAS-independent, luminescence, dose response (AID 1933); assay type: functional; settings: Homo sapiens
[13] = DRD fibroblast viability loss – cell-based, non-viral oncogenic, luminescence, dose response (AID 1934); assay type: functional; settings: Homo sapiens
BJ [14] = experiment: BJ-TERT-LT-ST fibroblast viability loss – cell-based, RAS-independent, luminescence, dose response (AID 1935); assay type: functional; settings: Homo sapiens;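 note: BJ fibroblasts immortalized with TERT plus LT and ST oncogenes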
Paired box protein Pax-8 = Paired box protein Pax-8 (Homo sapiens, UniProt Q06710); experiment: PAX8 transcriptional activity inhibition in RMG-I – RMG-I cells, luciferase, cherry-pick, dose response (AID 687027); assay type: functional, cell-based;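 note: luciferase reporter driven by Pax8 target thyroperoxidase promoter measured by SteadyGlo luminescence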
Paired box protein Pax-8, sequence (Q06710 whole entry): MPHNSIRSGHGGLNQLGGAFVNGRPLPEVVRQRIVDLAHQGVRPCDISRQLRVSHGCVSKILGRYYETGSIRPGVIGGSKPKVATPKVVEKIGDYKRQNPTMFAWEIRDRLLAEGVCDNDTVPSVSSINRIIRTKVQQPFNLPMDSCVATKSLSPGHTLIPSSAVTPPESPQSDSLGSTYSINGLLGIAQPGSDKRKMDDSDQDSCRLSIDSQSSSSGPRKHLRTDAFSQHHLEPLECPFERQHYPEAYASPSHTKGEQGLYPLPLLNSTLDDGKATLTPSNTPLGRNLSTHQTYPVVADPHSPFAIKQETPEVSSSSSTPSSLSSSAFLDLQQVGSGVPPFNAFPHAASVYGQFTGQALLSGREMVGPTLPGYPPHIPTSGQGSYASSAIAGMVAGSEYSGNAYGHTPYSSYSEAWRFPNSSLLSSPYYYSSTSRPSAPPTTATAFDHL

BJ [15] = experiment: cells; assay type: functional, cell-based; settings: Homo sapiens
[16] = general cell-killing toxicity readout – plate reader, dry powder samples, cytotoxicity control for PAX8 inhibitor project, dose response (AID 743021); assay type: functional, cell-based
[17] = biological target: Disintegrin and metalloproteinase domain-containing protein 17 (Homo sapiens, UniProt P78536); experiment: exosite inhibitors of ADAM17, dose response, biochemical (AID 743260)
Disintegrin and metalloproteinase domain-containing protein 17, sequence (P78536 whole entry, the tested form may be a part): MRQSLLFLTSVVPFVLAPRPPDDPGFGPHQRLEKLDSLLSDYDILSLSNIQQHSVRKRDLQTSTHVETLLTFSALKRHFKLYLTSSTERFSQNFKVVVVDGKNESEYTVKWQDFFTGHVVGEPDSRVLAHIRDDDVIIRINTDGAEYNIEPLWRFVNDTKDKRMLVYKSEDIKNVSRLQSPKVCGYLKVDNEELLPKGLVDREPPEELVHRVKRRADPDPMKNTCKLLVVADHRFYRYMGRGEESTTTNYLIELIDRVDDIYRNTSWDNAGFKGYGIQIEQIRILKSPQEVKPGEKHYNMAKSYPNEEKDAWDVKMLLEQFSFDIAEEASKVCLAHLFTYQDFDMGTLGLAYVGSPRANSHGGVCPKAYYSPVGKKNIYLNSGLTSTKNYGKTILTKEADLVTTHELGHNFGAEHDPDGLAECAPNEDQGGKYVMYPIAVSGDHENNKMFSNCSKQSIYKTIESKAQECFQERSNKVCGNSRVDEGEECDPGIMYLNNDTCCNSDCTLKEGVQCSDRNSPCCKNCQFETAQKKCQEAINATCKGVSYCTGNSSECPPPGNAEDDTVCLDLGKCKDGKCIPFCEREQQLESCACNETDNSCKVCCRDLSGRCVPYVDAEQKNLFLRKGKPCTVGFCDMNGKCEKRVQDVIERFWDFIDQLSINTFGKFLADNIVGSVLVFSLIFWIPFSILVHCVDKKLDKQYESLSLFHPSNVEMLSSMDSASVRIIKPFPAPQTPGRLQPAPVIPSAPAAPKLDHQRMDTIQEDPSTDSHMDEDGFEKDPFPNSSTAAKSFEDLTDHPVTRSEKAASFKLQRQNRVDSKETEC

[18] = general mammalian cell viability loss – activator set, cherry-pick, cytotoxicity control for miR-122 modulator project, dose response (AID 720690); assay type: functional, cell-based;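 note: HEK293T human cells scored for general mammalian cytotoxicity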
[19] = Luminescence-based cell-based high throughput dose response assay to identify activators of the DAF-12 from the parasite S. stercoralis (ssDAF-12).; assay type: functional
[20] = biological target: T4, Oxysterols receptor LXR-beta (Homo sapiens, UniProt P55055); experiment: LXR agonists, Gal4 luciferase reporter, dose response, counter-screen for ssDAF-12 agonist project, cell-based, luminescence, HEK293, S. stercoralis campaign (AID 720737); assay type: functional; settings: read-out: IC50 (the source's name)
T4 sequence (P55055 whole entry): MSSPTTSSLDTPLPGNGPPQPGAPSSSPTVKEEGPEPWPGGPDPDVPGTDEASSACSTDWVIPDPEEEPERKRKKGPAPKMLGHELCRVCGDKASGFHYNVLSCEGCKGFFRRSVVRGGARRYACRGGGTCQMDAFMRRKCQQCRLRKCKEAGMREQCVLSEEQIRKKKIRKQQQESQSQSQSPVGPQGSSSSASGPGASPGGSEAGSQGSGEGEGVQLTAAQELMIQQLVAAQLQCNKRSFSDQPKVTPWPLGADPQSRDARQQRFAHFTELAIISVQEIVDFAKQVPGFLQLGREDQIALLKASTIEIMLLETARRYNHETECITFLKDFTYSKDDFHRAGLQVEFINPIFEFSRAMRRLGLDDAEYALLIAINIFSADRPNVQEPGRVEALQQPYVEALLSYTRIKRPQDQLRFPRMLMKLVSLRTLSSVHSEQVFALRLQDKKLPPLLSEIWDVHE

[21] = OVCAR-3 cell viability loss – plate reader, dry powder samples, PAX8 inhibitor project, dose response (AID 743044); assay type: functional, cell-based
[22] = biological target: FAD-linked sulfhydryl oxidase ALR (Homo sapiens, UniProt P55789); experiment: ALR-catalysed DTT oxidation blockers – biochemical, H2O2 detection, luminescence, cherry-pick, dose response (AID 493248)
FAD-linked sulfhydryl oxidase ALR, sequence (P55789 whole entry): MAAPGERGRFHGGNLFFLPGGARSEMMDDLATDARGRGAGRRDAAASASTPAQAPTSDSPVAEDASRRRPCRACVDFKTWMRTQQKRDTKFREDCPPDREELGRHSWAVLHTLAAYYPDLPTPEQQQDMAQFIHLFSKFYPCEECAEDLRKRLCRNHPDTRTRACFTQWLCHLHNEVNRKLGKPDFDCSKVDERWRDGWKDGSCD

[23] = toxicity to human hepatoma HepG2 cells – cell-based, cherry-picked samples, cytotoxicity control, dose response (AID 1159577); assay type: functional
[24] = P. falciparum Dd2 growth inhibitors, dose response, SYBR Green, cherry-picked samples (AID 1159567); assay type: functional, cell-based

With O=C(O)c1cccc(-c2nc3ccccc3[nH]2)c1 the AC50 [1] was 1.5 µM (active), the AC50 [2] was > 52 µM (inactive) and the AC50 [3] was 1.54 µM (active). For the same molecule, the AC50 [4] was > 52 µM (inactive).
With O=C(Nc1ccc(C(=O)N2CCCCC2)cc1)C1=CSCCO1 the IC50 [5] was > 67.6 µM (inactive) and the IC50 (cells) was > 67.6 µM (inactive).
In the case of CN(Cc1ccccc1)C(=O)COC(=O)c1ccccc1Nc1ccccc1, the AC50 [6] is reported as 8.73 µM (active).
For O=C(O)c1ccc(Nc2cc(Cl)c3nonc3c2[N+](=O)[O-])cc1, the IC50 [7] was 92 µM (active), the IC50 [8] was > 66 µM (inactive) and the IC50 (Large T antigen) was 76.6 µM (active). For the same molecule, the IC50 (Genome polyprotein) was 12 µM (active) and the IC50 [9] was > 66 µM (inactive).
For CCN(C(=O)c1cc2c(=O)n3ccccc3nc2n1C)C1CCCCC1, the IC50 [5] was > 67.5 µM (inactive) and the IC50 (cells) was > 67.5 µM (inactive).
In the case of O=S(=O)(Nc1nccs1)c1ccc(NS(=O)(=O)c2cccs2)cc1, the AC50 [6] is reported as 5.42 µM (active) and the AC50 [10] is reported as 20.1 µM (active).
For Sc1n[nH]c(-c2sccc2OCc2ccc(Cl)cc2Cl)n1, the IC50 [11] was > 69.5 µM (inactive).
With O=C(NC1CCCCC1)C(c1cccnc1)N(C(=O)CCl)c1ccccc1Cl (stereo not given) the EC50 (BJ [12]) was 3.94 µM (inconclusive), the EC50 [13] was 37.3 µM (active) and the EC50 (BJ [14]) was > 150 µM (not active). The AC50 (Paired box protein Pax-8) was 6.05 µM (active), the EC50 (BJ [15]) was > 150 µM (not active) and the AC50 [16] was 11.2 µM (active).
In the case of CCCn1c(CCNc2nc(-c3cccc(Br)c3)cs2)nc2ccccc21, the IC50 [17] is reported as > 69.6 µM (inactive) and the IC50 [11] is reported as > 69.6 µM (inactive).
For COc1ccc(/C(C)=N/Nc2nccnc2Cl)cc1, the IC50 [5] was > 67.6 µM (inactive) and the IC50 (cells) was > 67.6 µM (inactive).
With O=C(Nc1ccccc1)N1CCCCN2[C@@H](CO)[C@H](c3ccc(C4=CCCCC4)cc3)[C@@H]2C1 the AC50 [18] was 10 µM (active) and the AC50 [10] was 10 µM (active).
In the case of C[C@@H]1CN([C@H](C)CO)C(=O)c2cc(NC(=O)Nc3ccc(C(F)(F)F)cc3)ccc2O[C@@H]1CN(C)CC1CCCCC1, the AC50 [6] is reported as 10.2 µM (active) and the AC50 [10] is reported as 32.8 µM (active).
In the case of COc1ccc(S(=O)(=O)Nc2ccc3c(c2)CC(=O)N([C@@H](C)CO)C[C@@H](C)[C@H](CN(C)Cc2ccc(-c4ccccc4)cc2)O3)cc1, the AC50 [18] is reported as 17.5 µM (active) and the AC50 (Paired box protein Pax-8) is reported as 6.29 µM (active).
For Cc1onc(-c2ccccc2)c1C(=O)OCC(=O)c1ccc(F)cc1, the IC50 [19] was > 67.5 µM (inactive) and the EC50 [20] was > 67.5 µM (inactive).
For COCC(=O)N1CCCCN2[C@H](C1)[C@@H](c1ccc(-c3ccc(C)cc3)cc1)[C@@H]2CO, the AC50 (Paired box protein Pax-8) was 58.9 µM (active) and the AC50 [21] was 56.3 µM (active).
For C/C=C/c1ccc([C@@H]2[C@H](CO)N[C@H]2CN(CC(C)C)C(=O)c2ccccn2)cc1, the AC50 [18] was 23.5 µM (active).
In the case of Cc1ccc(/C=N/Nc2ccc3ccccc3n2)o1, the IC50 [5] is reported as > 67.5 µM (inactive), the IC50 (cells) is reported as > 67.5 µM (inactive) and the AC50 [22] is reported as 5.31 µM (active).
For CN(/N=C/c1cccnc1)c1cnc2ccccc2n1, the IC50 [19] was > 67.5 µM (inactive) and the EC50 [20] was > 67.5 µM (inactive).
With OC[C@@H]1[C@H](c2ccc(-c3ccc(F)cc3)cc2)[C@H](CNC2CCCC2)N1CCC(F)(F)F the AC50 [23] was 16.5 µM (active) and the AC50 [24] was 2.51 µM (active).
